# Assay results reported in PMC11079024, “Identification of a family of species-selective complex I inhibitors as potential anthelmintics” (Nature Communications, 2024).
# Where “and” joins values, the source holds several entries; their conditions need not be identical. Identical values can stand only once. Like-named read-outs stand apart in the source and are kept apart here.
# Target: C. elegans (N2) complex I (NADH:ubiquinone oxidoreductase) (Caenorhabditis elegans, UniProt P24887+Q93873+Q94360)
# Assay: biochemical
# Assay type: biochemical
# In short: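 Complex I rate: initial linear slope of A600 over 15 min, expressed as percent of solvent control. Triple freeze-thawed mitochondria (0.2 mg/mL) in KPi pH 7.5, BSA 3 mg/mL, NADH 80 μM, decylubiquinone 60 μM, DCIP 160 μM, antimycin A, KCN.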
# [1] = C. elegans, Mean of replicates, read-out: Complex I activity, dose-response data
# [2] = C. elegans, individual replicates (Rep), read-out: Complex I activity, dose-response data
# C. elegans (N2) complex I (NADH:ubiquinone oxidoreductase), sequence (Q94360 17-199): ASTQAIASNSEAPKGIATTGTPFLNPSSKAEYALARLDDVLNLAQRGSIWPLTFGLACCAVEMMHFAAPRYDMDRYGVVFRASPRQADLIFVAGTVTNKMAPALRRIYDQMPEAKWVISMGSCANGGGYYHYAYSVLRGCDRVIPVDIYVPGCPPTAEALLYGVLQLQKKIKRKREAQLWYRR
# C. elegans (N2) complex I (NADH:ubiquinone oxidoreductase), sequence (P24887 whole entry): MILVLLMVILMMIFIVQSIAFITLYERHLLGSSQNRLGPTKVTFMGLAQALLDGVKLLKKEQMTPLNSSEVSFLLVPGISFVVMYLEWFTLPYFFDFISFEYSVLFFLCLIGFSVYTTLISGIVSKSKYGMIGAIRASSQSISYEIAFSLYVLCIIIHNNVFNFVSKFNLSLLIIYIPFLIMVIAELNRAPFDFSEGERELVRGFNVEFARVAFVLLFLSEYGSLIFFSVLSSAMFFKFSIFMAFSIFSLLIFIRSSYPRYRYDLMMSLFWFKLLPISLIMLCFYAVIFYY
# C. elegans (N2) complex I (NADH:ubiquinone oxidoreductase), sequence (Q93873 31-482): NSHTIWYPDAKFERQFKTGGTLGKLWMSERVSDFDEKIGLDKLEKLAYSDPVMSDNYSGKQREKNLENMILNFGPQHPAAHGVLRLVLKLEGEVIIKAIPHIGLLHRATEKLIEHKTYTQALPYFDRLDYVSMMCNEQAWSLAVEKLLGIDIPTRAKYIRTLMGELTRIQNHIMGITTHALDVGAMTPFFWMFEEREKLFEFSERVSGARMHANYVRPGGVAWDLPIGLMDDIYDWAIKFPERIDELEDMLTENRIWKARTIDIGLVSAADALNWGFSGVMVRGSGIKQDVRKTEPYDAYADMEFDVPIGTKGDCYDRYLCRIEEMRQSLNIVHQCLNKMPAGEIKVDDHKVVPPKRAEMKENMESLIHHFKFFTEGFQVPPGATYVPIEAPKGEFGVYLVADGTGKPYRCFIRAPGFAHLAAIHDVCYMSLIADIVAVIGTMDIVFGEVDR
compound,measurement,setting,value
COc1cc2c(cc1OC)C(C(C)c1ccc(CC(C)C)cc1)=NCC2 (stereo not drawn) [NPD10504],remaining activity at 3 µM,"3 µM, wild-type C. elegans mitochondria, single replicate, read-out: percent (%) in vitro complex I activity relative to solvent control",61.4%
same,remaining activity at 15 µM,"wild-type C. elegans mitochondria, mean of replicates, read-out: percent (%) in vitro complex I activity relative to solvent control",13.5%
same,remaining activity at 15 µM,"wild-type C. elegans mitochondria, single replicate, read-out: percent (%) in vitro complex I activity relative to solvent control",12.3%
same,remaining activity at 37.5 µM,"37.5 µM, wild-type C. elegans mitochondria, mean of replicates, read-out: percent (%) in vitro complex I activity relative to solvent control",12.4%
same,remaining activity at 75 µM,"75 µM, wild-type C. elegans mitochondria, mean of replicates, read-out: percent (%) in vitro complex I activity relative to solvent control",12.3%
same,activity at 100 µM,"100 µM compound, relative to solvent control, mean (SEM), read-out: % Activity Complex I",4.22%
same,"Percent in vitro activity, Complex I (single replicate Rep1-Rep4)","100 μM of NPD compound, C. elegans mitochondria, individual biological replicates, 100 µM",0.000% and 7.255% and 9.637%
same,activity at 100 µM,"100 μM of NPD compound, C. elegans mitochondria, mean of four biological replicates, read-out: Percent in vitro activity, Complex I (Mean)",4.22%
same,activity at 0.0001 µM,[1],100%
same,activity at 0.0001 µM,[2],100%
same,activity at 0.0005 µM,"C. elegans, dose 0.0005 µM, Mean of replicates, read-out: Complex I activity, dose-response data",95.6%
same,"Complex I activity, dose-response data","C. elegans, dose 0.0005 µM, individual replicates (Rep)",99.245 and 96.022 and 93.047
same,activity at 0.0005 µM,"C. elegans, dose 0.0005 µM, individual replicates (Rep), read-out: Complex I activity, dose-response data",94%
same,activity at 0.001 µM,"C. elegans, dose 0.001 µM, Mean of replicates, read-out: Complex I activity, dose-response data",95.6%
same,"Complex I activity, dose-response data","C. elegans, dose 0.001 µM, individual replicates (Rep)",101.885 and 91.805 and 98.125
same,activity at 0.001 µM,"C. elegans, dose 0.001 µM, individual replicates (Rep), read-out: Complex I activity, dose-response data",90.6%
same,activity at 0.0025 µM,"C. elegans, dose 0.0025 µM, Mean of replicates, read-out: Complex I activity, dose-response data",95.4%
same,"Complex I activity, dose-response data","C. elegans, dose 0.0025 µM, individual replicates (Rep)",105.286 and 89.091 and 95.022
same,activity at 0.0025 µM,"C. elegans, dose 0.0025 µM, individual replicates (Rep), read-out: Complex I activity, dose-response data",92.2%
same,activity at 0.005 µM,"C. elegans, dose 0.005 µM, Mean of replicates, read-out: Complex I activity, dose-response data",93.5%
same,"Complex I activity, dose-response data","C. elegans, dose 0.005 µM, individual replicates (Rep)",100.896 and 97.608 and 92.236
same,activity at 0.005 µM,"C. elegans, dose 0.005 µM, individual replicates (Rep), read-out: Complex I activity, dose-response data",83.3%
same,activity at 0.013 µM,"C. elegans, dose 0.013 µM, Mean of replicates, read-out: Complex I activity, dose-response data",97.4%
same,"Complex I activity, dose-response data","C. elegans, dose 0.013 µM, individual replicates (Rep)",86.744 and 107.737 and 98.643 and 96.409
same,activity at 0.025 µM,"C. elegans, dose 0.025 µM, Mean of replicates, read-out: Complex I activity, dose-response data",99.6%
same,"Complex I activity, dose-response data","C. elegans, dose 0.025 µM, individual replicates (Rep)",81.492 and 104.774 and 100.771 and 111.289
same,activity at 0.063 µM,"C. elegans, dose 0.063 µM, Mean of replicates, read-out: Complex I activity, dose-response data",97%
same,"Complex I activity, dose-response data","C. elegans, dose 0.063 µM, individual replicates (Rep)",104.194 and 94.273 and 98.067
same,activity at 0.063 µM,"C. elegans, dose 0.063 µM, individual replicates (Rep), read-out: Complex I activity, dose-response data",91.6%
same,activity at 0.125 µM,"C. elegans, dose 0.125 µM, Mean of replicates, read-out: Complex I activity, dose-response data",92.7%
same,"Complex I activity, dose-response data","C. elegans, dose 0.125 µM, individual replicates (Rep)",100.304 and 94.360 and 87.363
same,activity at 0.125 µM,"C. elegans, dose 0.125 µM, individual replicates (Rep), read-out: Complex I activity, dose-response data",88.8%
same,activity at 0.313 µM,"C. elegans, dose 0.313 µM, Mean of replicates, read-out: Complex I activity, dose-response data",91.5%
same,"Complex I activity, dose-response data","C. elegans, dose 0.313 µM, individual replicates (Rep)",102.145 and 93.069 and 82.299
same,activity at 0.313 µM,"C. elegans, dose 0.313 µM, individual replicates (Rep), read-out: Complex I activity, dose-response data",88.6%
same,activity at 0.625 µM,[1],100%
same,activity at 0.625 µM,[2],100%
same,activity at 1.5 µM,"C. elegans, dose 1.5 µM, Mean of replicates, read-out: Complex I activity, dose-response data",78.6%
same,"Complex I activity, dose-response data","C. elegans, dose 1.5 µM, individual replicates (Rep)",84.112 and 75.755 and 78.095
same,activity at 1.5 µM,"C. elegans, dose 1.5 µM, individual replicates (Rep), read-out: Complex I activity, dose-response data",76.6%
same,activity at 3 µM,"C. elegans, dose 3 µM, Mean of replicates, read-out: Complex I activity, dose-response data",58.9%
same,"Complex I activity, dose-response data","C. elegans, dose 3 µM, individual replicates (Rep)",63.002 and 56.869 and 54.489
same,activity at 3 µM,"C. elegans, dose 3 µM, individual replicates (Rep), read-out: Complex I activity, dose-response data",61.4%
same,activity at 15 µM,"C. elegans, dose 15 µM, Mean of replicates, read-out: Complex I activity, dose-response data",13.5%
same,"Complex I activity, dose-response data","C. elegans, dose 15 µM, individual replicates (Rep)",13.403 and 18.209 and 10.130
same,activity at 15 µM,"C. elegans, dose 15 µM, individual replicates (Rep), read-out: Complex I activity, dose-response data",12.3%
same,activity at 37.5 µM,"C. elegans, dose 37.5 µM, Mean of replicates, read-out: Complex I activity, dose-response data",12.4%
same,"Complex I activity, dose-response data","C. elegans, dose 37.5 µM, individual replicates (Rep)",3.265 and 5.642 and 23.594 and 17.069
same,activity at 75 µM,"C. elegans, dose 75 µM, Mean of replicates, read-out: Complex I activity, dose-response data",12.3%
same,"Complex I activity, dose-response data","C. elegans, dose 75 µM, individual replicates (Rep)",2.370 and 3.939 and 26.690 and 16.321
same,IC50,"wild-type (N2) mitochondria, read-out: C. elegans Complex I IC50",3.29 µM and 3.3 µM
